Assay results reported in the kinase profiling compilation of Christmann-Franck et al. (2016).

Legend:
Experiment in all cases: radiometric filter-binding kinase assay
[1] = system: AKT1 (human), P31749 [S473D]
[2] = target: BRSK2 (human) (UniProt Q8IWQ3)
[3] = target: CLK2 (human) (UniProt P49760)
[4] = target: CSNK2A1 (human) (UniProt P68400)
[5] = target: DAPK1 (human) (UniProt P53355)
[6] = target: DYRK1A (human) (UniProt Q13627)
[7] = target: DYRK3 (human) (UniProt O43781)
[8] = target: EPHB3 (human) (UniProt P54753)
[9] = target: IKBKB (human) (UniProt O14920)
[10] = target: IKBKE (human) (UniProt Q14164)
[11] = target: IRAK4 (human) (UniProt Q9NWZ3)
[12] = target: MAP2K6 (human) (UniProt P52564)
[13] = target: MAP3K11 (human) (UniProt Q16584)
[14] = target: MAPK11 (human) (UniProt Q15759)
[15] = target: MAPK12 (human) (UniProt P53778)
[16] = target: MAPK14 (human) (UniProt Q16539)
[17] = target: MAPK3 (human) (UniProt P27361)
[18] = target: MAPK8 (human) (UniProt P45983)
[19] = target: MAPKAPK3 (human) (UniProt Q16644)
[20] = target: MAPKAPK5 (human) (UniProt Q8IW41)
[21] = target: MKNK2 (human) (UniProt Q9HBH9)
[22] = target: NTRK1 (human) (UniProt P04629)
[23] = target: PAK4 (human) (UniProt O96013)
[24] = target: PIM1 (human) (UniProt P11309)
[25] = target: PIM2 (human) (UniProt Q9P1W9)
[26] = target: PIM3 (human) (UniProt Q86V86)
[27] = target: PLK1 (human) (UniProt P53350)
[28] = system: ROCK2 (rat); conditions: accession and sequence are those of the human protein
[29] = target: RPS6KA1 KD1 KD2 (human) (UniProt Q15418)
[30] = target: RPS6KA3 KD1 KD2 (human) (UniProt P51812)
[31] = system: RPS6KB1 (human), P23443 [T412E]
[32] = system: SGK1 (human), O00141 [S422D]
[33] = target: STK3 (human) (UniProt Q13188)
[34] = target: TBK1 (human) (UniProt Q9UHD2)
[35] = target: MAP3K7 TAB1 (human) (UniProt Q15750+O43318); conditions: compound 1.0 µM

Chain of RPS6KB1 (human), P23443 [T412E] (P23443 whole entry T412E, looked up): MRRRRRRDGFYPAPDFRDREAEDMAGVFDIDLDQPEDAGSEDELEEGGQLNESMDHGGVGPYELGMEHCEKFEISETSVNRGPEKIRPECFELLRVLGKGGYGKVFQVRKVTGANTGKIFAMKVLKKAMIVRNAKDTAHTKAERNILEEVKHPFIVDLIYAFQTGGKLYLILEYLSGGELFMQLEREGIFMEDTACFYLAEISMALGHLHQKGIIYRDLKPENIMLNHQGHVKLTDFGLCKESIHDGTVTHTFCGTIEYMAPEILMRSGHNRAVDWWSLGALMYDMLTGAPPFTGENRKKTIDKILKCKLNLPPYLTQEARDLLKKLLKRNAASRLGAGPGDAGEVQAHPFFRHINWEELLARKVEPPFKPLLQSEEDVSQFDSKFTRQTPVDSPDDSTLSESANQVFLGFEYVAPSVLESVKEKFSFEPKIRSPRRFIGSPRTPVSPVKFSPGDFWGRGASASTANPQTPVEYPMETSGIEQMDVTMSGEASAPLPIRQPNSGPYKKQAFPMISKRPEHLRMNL
Chain of MAPK3 (human) (P27361 whole entry, looked up): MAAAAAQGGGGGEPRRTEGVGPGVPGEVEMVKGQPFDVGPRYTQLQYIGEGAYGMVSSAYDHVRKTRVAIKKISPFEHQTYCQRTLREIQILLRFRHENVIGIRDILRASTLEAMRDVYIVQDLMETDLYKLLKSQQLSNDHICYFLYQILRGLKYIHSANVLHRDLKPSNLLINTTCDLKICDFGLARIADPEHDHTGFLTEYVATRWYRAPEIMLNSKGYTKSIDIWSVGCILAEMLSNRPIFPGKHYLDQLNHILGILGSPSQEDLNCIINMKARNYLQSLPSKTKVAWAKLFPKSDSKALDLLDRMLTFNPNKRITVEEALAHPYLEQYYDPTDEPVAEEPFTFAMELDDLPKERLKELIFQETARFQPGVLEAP
Chain of MAPK8 (human) (P45983 whole entry, looked up): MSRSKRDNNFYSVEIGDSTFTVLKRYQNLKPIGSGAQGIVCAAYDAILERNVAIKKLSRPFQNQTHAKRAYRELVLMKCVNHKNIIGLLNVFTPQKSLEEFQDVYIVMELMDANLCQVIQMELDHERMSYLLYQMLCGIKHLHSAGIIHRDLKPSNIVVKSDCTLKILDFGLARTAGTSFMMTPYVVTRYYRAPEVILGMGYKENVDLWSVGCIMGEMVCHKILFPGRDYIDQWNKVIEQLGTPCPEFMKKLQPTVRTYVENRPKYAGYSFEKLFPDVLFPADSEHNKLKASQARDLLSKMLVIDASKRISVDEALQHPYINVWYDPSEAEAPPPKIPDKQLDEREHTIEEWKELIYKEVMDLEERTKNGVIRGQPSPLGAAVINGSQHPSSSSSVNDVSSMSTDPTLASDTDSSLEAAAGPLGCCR
Chain of IKBKE (human) (Q14164 whole entry, looked up): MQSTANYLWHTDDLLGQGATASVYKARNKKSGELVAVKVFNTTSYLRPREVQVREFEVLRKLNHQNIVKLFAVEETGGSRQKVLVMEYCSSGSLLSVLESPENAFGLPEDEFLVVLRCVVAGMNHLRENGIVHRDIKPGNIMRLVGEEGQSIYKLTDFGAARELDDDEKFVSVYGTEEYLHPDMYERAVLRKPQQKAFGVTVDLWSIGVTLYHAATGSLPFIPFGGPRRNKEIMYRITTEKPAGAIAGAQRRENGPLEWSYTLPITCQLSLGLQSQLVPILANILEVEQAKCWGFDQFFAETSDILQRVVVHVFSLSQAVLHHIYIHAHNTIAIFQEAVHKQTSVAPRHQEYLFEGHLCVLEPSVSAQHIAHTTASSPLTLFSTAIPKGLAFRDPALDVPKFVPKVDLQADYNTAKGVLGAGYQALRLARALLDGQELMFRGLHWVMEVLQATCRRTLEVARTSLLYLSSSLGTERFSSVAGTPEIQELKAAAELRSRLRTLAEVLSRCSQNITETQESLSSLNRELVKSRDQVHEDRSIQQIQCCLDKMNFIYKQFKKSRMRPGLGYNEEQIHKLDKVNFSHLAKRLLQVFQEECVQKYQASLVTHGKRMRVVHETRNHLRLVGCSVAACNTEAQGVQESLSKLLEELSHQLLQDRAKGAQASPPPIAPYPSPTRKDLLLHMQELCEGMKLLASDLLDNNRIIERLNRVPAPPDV
Chain of PIM1 (human) (P11309 whole entry, looked up): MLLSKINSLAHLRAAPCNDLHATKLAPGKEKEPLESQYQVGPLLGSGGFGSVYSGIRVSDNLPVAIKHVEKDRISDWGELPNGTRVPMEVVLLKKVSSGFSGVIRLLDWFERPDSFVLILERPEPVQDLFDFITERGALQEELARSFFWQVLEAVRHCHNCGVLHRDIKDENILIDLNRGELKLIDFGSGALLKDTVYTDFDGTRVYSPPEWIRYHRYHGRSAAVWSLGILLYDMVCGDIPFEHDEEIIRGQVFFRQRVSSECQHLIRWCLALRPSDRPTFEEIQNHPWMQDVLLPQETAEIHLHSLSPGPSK
Chain of STK3 (human) (Q13188 whole entry, looked up): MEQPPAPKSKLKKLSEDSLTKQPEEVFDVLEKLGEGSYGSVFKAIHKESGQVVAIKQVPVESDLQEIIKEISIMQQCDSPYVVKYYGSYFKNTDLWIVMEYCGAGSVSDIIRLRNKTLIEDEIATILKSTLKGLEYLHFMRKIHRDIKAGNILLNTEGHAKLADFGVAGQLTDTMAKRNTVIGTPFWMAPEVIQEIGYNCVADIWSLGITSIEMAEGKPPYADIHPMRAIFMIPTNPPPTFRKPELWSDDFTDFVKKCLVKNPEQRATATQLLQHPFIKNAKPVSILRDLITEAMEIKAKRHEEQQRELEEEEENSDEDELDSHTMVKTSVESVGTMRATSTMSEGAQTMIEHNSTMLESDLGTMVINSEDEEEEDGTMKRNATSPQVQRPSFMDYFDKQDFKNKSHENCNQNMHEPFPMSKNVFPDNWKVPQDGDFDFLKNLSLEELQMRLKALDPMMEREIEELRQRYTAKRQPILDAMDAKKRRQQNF
Chain of PLK1 (human) (P53350 whole entry, looked up): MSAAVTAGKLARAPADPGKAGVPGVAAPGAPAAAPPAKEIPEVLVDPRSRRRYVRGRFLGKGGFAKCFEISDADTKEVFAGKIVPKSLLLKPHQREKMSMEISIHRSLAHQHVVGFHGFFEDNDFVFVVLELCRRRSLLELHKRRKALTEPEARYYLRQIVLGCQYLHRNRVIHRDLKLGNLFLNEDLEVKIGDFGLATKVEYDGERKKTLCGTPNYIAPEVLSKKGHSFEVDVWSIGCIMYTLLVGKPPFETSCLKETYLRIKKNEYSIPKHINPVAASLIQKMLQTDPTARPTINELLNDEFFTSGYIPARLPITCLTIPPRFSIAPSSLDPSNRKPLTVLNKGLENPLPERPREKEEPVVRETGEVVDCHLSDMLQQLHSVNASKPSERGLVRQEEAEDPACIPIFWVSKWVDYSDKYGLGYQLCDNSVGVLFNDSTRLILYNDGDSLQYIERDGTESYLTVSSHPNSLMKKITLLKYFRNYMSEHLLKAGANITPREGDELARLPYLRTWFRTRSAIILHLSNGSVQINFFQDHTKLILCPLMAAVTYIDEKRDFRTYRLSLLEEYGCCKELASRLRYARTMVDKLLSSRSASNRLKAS
Chain of NTRK1 (human) (P04629 whole entry, looked up): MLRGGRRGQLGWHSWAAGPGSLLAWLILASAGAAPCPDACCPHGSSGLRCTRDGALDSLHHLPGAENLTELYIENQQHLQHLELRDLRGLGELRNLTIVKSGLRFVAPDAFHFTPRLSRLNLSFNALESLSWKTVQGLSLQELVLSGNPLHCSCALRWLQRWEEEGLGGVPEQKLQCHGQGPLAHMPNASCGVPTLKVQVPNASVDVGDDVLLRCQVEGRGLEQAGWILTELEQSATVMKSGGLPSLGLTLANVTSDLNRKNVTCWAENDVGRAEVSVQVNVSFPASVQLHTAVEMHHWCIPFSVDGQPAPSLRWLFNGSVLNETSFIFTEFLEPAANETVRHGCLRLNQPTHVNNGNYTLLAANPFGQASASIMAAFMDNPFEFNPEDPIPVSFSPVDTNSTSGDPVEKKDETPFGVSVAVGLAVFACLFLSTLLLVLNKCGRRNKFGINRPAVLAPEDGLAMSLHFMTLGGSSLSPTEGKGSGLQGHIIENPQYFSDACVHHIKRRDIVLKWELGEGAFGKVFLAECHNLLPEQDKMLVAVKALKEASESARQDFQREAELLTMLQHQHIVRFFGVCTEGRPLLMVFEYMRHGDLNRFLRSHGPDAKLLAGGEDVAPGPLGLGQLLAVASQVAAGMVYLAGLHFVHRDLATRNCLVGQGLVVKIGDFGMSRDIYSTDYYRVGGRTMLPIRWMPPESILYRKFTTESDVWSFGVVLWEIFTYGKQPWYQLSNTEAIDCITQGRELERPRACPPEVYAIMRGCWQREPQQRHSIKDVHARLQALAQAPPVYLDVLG
Chain of MAP2K6 (human) (P52564 whole entry, looked up): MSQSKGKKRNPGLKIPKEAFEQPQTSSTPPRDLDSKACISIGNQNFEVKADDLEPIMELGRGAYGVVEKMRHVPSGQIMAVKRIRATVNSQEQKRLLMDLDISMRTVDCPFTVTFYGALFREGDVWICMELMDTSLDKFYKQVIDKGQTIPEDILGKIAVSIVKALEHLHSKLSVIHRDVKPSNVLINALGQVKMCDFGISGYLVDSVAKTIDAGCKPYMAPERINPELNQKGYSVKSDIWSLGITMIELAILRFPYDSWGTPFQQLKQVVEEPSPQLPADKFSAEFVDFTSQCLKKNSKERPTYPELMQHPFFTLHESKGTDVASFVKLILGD
Chain of MAPKAPK3 (human) (Q16644 whole entry, looked up): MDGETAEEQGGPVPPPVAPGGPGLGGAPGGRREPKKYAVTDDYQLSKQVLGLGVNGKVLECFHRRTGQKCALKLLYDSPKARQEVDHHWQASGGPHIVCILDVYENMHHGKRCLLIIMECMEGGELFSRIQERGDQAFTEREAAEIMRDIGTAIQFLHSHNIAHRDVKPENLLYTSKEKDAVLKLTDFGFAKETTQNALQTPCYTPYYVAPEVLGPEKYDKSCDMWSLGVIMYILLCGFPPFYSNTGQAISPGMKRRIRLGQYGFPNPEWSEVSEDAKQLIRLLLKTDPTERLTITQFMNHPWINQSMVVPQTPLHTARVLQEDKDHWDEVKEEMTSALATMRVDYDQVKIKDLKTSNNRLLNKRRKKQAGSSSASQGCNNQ

## Cc1ccc(=O)n(-c2ccccc2)c1
[1]; compound 1.0 µM
  residual activity: 108%
[1]; compound 10.0 µM
  residual activity: 102%
[2]; compound 1.0 µM
  residual activity: 106%
[2]; compound 10.0 µM
  residual activity: 96%
[3]; compound 1.0 µM
  residual activity: 120%
[3]; compound 10.0 µM
  residual activity: 112%
[4]; compound 1.0 µM
  residual activity: 98%
[4]; compound 10.0 µM
  residual activity: 103%
[5]; compound 1.0 µM
  residual activity: 112%
[5]; compound 10.0 µM
  residual activity: 100%
[6]; compound 1.0 µM
  residual activity: 103%
[6]; compound 10.0 µM
  residual activity: 91%
[7]; compound 1.0 µM
  residual activity: 103%
[7]; compound 10.0 µM
  residual activity: 93%
[8]; compound 1.0 µM
  residual activity: 96%
[8]; compound 10.0 µM
  residual activity: 112%
[9]; compound 1.0 µM
  residual activity: 87%
[9]; compound 10.0 µM
  residual activity: 88%
[10]; compound 1.0 µM
  residual activity: 104%
[10]; compound 10.0 µM
  residual activity: 99%
[11]; compound 1.0 µM
  residual activity: 83%
[11]; compound 10.0 µM
  residual activity: 95%
[12]; compound 1.0 µM
  residual activity: 106%
[12]; compound 10.0 µM
  residual activity: 88%
[13]; compound 1.0 µM
  residual activity: 108%
[13]; compound 10.0 µM
  residual activity: 98%
[14]; compound 1.0 µM
  residual activity: 120%
[14]; compound 10.0 µM
  residual activity: 111%
[15]; compound 1.0 µM
  residual activity: 109%
[15]; compound 10.0 µM
  residual activity: 96%
[16]; compound 1.0 µM
  residual activity: 102%
[16]; compound 10.0 µM
  residual activity: 83%
[17]; compound 1.0 µM
  residual activity: 125%
[17]; compound 10.0 µM
  residual activity: 115%
[18]; compound 1.0 µM
  residual activity: 85%
[18]; compound 10.0 µM
  residual activity: 87%
[19]; compound 1.0 µM
  residual activity: 92%
[19]; compound 10.0 µM
  residual activity: 84%
[20]; compound 1.0 µM
  residual activity: 100%
[20]; compound 10.0 µM
  residual activity: 95%
[21]; compound 1.0 µM
  residual activity: 90%
[21]; compound 10.0 µM
  residual activity: 93%
[22]; compound 1.0 µM
  residual activity: 103%
[22]; compound 10.0 µM
  residual activity: 112%
[23]; compound 1.0 µM
  residual activity: 101%
[23]; compound 10.0 µM
  residual activity: 89%
[24]; compound 1.0 µM
  residual activity: 105%
[24]; compound 10.0 µM
  residual activity: 106%
[25]; compound 1.0 µM
  residual activity: 118%
[25]; compound 10.0 µM
  residual activity: 96%
[26]; compound 1.0 µM
  residual activity: 111%
[26]; compound 10.0 µM
  residual activity: 95%
[27]; compound 1.0 µM
  residual activity: 96%
[27]; compound 10.0 µM
  residual activity: 82%
[28]; compound 1.0 µM
  residual activity: 94%
[28]; compound 10.0 µM
  residual activity: 84%
[29]; compound 1.0 µM
  residual activity: 107%
[29]; compound 10.0 µM
  residual activity: 114%
[30]; compound 1.0 µM
  residual activity: 98%
[30]; compound 10.0 µM
  residual activity: 94%
[31]; compound 1.0 µM
  residual activity: 115%
[31]; compound 10.0 µM
  residual activity: 111%
[32]; compound 1.0 µM
  residual activity: 113%
[32]; compound 10.0 µM
  residual activity: 100%
[33]; compound 1.0 µM
  residual activity: 112%
[33]; compound 10.0 µM
  residual activity: 112%
[34]; compound 1.0 µM
  residual activity: 99%
[34]; compound 10.0 µM
  residual activity: 91%

## C=C1C(=O)OC2C1CC/C(C)=C/CCC1(C)OC21 (stereo not given)
[1]; compound 1.0 µM
  residual activity: 107%
[1]; compound 5.0 µM
  residual activity: 106%
[2]; compound 1.0 µM
  residual activity: 109%
[3]; compound 1.0 µM
  residual activity: 90%
[3]; compound 5.0 µM
  residual activity: 93%
[4]; compound 1.0 µM
  residual activity: 117%
[4]; compound 5.0 µM
  residual activity: 106%
[5]; compound 1.0 µM
  residual activity: 102%
[5]; compound 5.0 µM
  residual activity: 107%
[6]; compound 1.0 µM
  residual activity: 120%
[6]; compound 5.0 µM
  residual activity: 101%
[7]; compound 1.0 µM
  residual activity: 124%
[7]; compound 5.0 µM
  residual activity: 106%
[8]; compound 1.0 µM
  residual activity: 95%
[8]; compound 5.0 µM
  residual activity: 115%
[10]; compound 1.0 µM
  residual activity: 112%
[10]; compound 5.0 µM
  residual activity: 108%
[11]; compound 1.0 µM
  residual activity: 106%
[11]; compound 5.0 µM
  residual activity: 97%
[12]; compound 1.0 µM
  residual activity: 96%
[12]; compound 5.0 µM
  residual activity: 92%
[13]; compound 1.0 µM
  residual activity: 104%
[13]; compound 5.0 µM
  residual activity: 116%
[35]
  residual activity: 109%
[14]; compound 1.0 µM
  residual activity: 111%
[14]; compound 5.0 µM
  residual activity: 121%
[15]; compound 1.0 µM
  residual activity: 108%
[15]; compound 5.0 µM
  residual activity: 115%
[16]; compound 1.0 µM
  residual activity: 105%
[16]; compound 5.0 µM
  residual activity: 111%
[17]; compound 1.0 µM
  residual activity: 105%
[17]; compound 5.0 µM
  residual activity: 103%
[18]; compound 1.0 µM
  residual activity: 104%
[18]; compound 5.0 µM
  residual activity: 102%
[19]; compound 1.0 µM
  residual activity: 135%
[19]; compound 5.0 µM
  residual activity: 58%
[21]; compound 1.0 µM
  residual activity: 113%
[21]; compound 5.0 µM
  residual activity: 117%
[22]; compound 1.0 µM
  residual activity: 106%
[22]; compound 5.0 µM
  residual activity: 83%
[23]; compound 1.0 µM
  residual activity: 93%
[23]; compound 5.0 µM
  residual activity: 104%
[24]; compound 1.0 µM
  residual activity: 97%
[24]; compound 5.0 µM
  residual activity: 108%
[25]; compound 1.0 µM
  residual activity: 110%
[25]; compound 5.0 µM
  residual activity: 102%
[26]; compound 1.0 µM
  residual activity: 119%
[26]; compound 5.0 µM
  residual activity: 121%
[27]; compound 1.0 µM
  residual activity: 103%
[27]; compound 5.0 µM
  residual activity: 103%
[28]; compound 1.0 µM
  residual activity: 123%
[28]; compound 5.0 µM
  residual activity: 113%
[29]; compound 1.0 µM
  residual activity: 110%
[29]; compound 5.0 µM
  residual activity: 112%
[30]; compound 1.0 µM
  residual activity: 102%
[30]; compound 5.0 µM
  residual activity: 94%
[31]; compound 1.0 µM
  residual activity: 103%
[31]; compound 5.0 µM
  residual activity: 106%
[32]; compound 5.0 µM
  residual activity: 115%
[33]; compound 1.0 µM
  residual activity: 118%
[33]; compound 5.0 µM
  residual activity: 125%
[34]; compound 1.0 µM
  residual activity: 104%
